# Where a name gives a salt, the structure may show the parent alone.
# Assays:
# Assay in all cases: In vitro MMP inhibition, IC50 determination (fluorogenic substrate I)
# Assay type in all cases: biochemical
# Human recombinant MMP-9 = target: T1, Human recombinant MMP-9 (Homo sapiens, UniProt P14780)
# T1 construct: made in house; host or cells: MMP-9-transfected HT1080 cells (spent media)
# Procedure: (§1) Several hydroxamates and salts thereof were analyzed in in vitro assays to determine their ability to inhibit the MMP cleavage of peptide substrates. Inhibition (Ki) and IC50 constants were calculated from the assayed hydroxamate-MMP interactions.
# (§2) Human recombinant MMP-1, MMP-2, MMP-9, MMP-13, and MMP-14 were used in this assay. All enzymes were prepared in Assignee's laboratories following usual laboratory procedures. Protocols for the preparation and use of these enzymes are available in the scientific literature. See, e.g., Enzyme Nomenclature (Academic Press, San Diego, Calif., 1992) (and the citations therein). See also, Frije et al., J. Biol. Chem., 26(24), 16766-73 (1994).
# The MMP-9 proenzyme was purified by gelatin Sepharose chromatography from spent media of MMP-9-transfected HT1080 cells provided by Dr. Howard Welgus of Washington University (St. Louis, Mo.).
# (§3) All MMPs were activated using 4-aminophenylmercuric acetate (“APMA”, Sigma Chemical, St. Louis, Mo.) or trypsin. MMP-9 also was activated using human recombinant MMP-3 (purified in Assignee's laboratory following standard cloning and purification techniques).
# (§4) Two fluorogenic, methoxycoumarin-containing polypeptide substrates were used in the MMP inhibition assays:
# (§5) MCA-ProLeuGlyLeuDpaAlaArgNH2 (I)
# (§6) Here, “Dpa” is 3-(2,4-dinitrophenyl)-L-2,3-diaminopropionyl group, and “MCA” is 7-methoxycoumarin-4-yl acetyl. Substrate (I) was purchased from Baychem (Redwood City, Calif.), and substrate II was prepared Assignee's laboratory. Substrate I was used in the IC50 determination assays, while substrate II was used in the Ki determination assays. In the absence of MMP inhibitory activity, either substrate is cleaved at the Gly-Leu peptide bond. This cleavage separates the highly fluorogenic peptide from the 2,4-dinitrophenyl quencher, thus resulting in increase of fluorescent intensity.
# (§7) The stock solutions of the assayed hydroxamates (or salts thereof) were prepared in 1% dimethyl sulfoxide (DMSO). These stock solutions were diluted in Buffer A (100 mM Tris-HCl, 100 mM NaCl, 10 mM CaCl2, 0.05% polyoxyethylene 23 lauryl ether, pH 7.5) to obtain solutions with different hydroxamate concentrations, i.e., assay solutions with different concentrations of the assayed MMP inhibitory compound. The experiment controls contained the same amount of Buffer A/DMSO as the assayed sample, but contained no hydroxamate (or salt thereof).
# (§8) The assays from which the IC50 determinations were made were performed as follows. The MMPs were activated with either trypsin or APMA (4-aminophenylmercuric acetate, Sigma Chemical, St. Louis, Mo.). The assayed hydroxamate samples were, incubated in Microfluorrm White Plates (Dynatech, Chantilly, VA) and analyzed on a Perkin Elmer L550 plate reader (Norwalk, Conn.). The excitation wavelength was 328 nm, and the emission wavelength—415 nm. All samples (assayed hydroxamates and controls) were incubated in separate plates at room temperature in the presence of 4 μM of MMP substrate (I). As stated in the previous paragraph, samples containing varying concentrations of the same assayed hydroxamate were prepared. Inhibition was measured as a reduction in fluorescent intensity as a function of MMP inhibitor concentration.
# Human recombinant MMP-14 = target: T2, Human recombinant MMP-14 (Homo sapiens, UniProt P50281)
# T2 construct: The catalytic domain enzyme was expressed in E. coli inclusion bodies, solubilized in urea; made in house
# Procedure: as §1, §2
# The MMP-14 full length cDNA was provided by Dr. Gregory Goldberg of Washington University (St. Louis, Mo.). The catalytic domain enzyme was expressed in E. coli inclusion bodies, solubilized in urea, purified on a preparative […] reverse phase HPLC column, and then refolded in the presence of zinc acetate and purified for use.
# as §3, §4, §5, §6, §7, §8
# Human recombinant MMP-1 = target: T3, Human recombinant MMP-1 (Homo sapiens, UniProt P03956)
# T3 construct: made in house; host or cells: MMP-1-transfected HT-1080 cells (spent media)
# T3 sequence (P03956 100-469): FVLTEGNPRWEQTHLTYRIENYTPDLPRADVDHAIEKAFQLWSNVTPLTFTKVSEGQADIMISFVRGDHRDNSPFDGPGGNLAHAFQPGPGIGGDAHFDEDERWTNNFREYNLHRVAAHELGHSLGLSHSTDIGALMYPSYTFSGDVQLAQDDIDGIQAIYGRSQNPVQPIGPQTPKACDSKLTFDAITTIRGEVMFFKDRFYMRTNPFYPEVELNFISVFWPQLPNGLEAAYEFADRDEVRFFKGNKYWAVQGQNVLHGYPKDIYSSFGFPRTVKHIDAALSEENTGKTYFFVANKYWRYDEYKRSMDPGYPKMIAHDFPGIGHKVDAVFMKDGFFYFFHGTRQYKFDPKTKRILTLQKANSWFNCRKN
# Procedure: as §1, §2
# The MMP-1 proenzyme was purified from the spent media of MMP-1-transfected HT-1080 cells provided by Dr. Harold Welgus of Washington University (St. Louis, Mo.). The protein was purified on a zinc chelating column.
# as §3, §4, §5, §6, §7, §8
# Human recombinant MMP-2 = target: T4, Human recombinant MMP-2 (Homo sapiens, UniProt P08253)
# T4 construct: made in house; host or cells: MMP-2-transfected p2AHT2 cells
# T4 sequence (P08253 110-660): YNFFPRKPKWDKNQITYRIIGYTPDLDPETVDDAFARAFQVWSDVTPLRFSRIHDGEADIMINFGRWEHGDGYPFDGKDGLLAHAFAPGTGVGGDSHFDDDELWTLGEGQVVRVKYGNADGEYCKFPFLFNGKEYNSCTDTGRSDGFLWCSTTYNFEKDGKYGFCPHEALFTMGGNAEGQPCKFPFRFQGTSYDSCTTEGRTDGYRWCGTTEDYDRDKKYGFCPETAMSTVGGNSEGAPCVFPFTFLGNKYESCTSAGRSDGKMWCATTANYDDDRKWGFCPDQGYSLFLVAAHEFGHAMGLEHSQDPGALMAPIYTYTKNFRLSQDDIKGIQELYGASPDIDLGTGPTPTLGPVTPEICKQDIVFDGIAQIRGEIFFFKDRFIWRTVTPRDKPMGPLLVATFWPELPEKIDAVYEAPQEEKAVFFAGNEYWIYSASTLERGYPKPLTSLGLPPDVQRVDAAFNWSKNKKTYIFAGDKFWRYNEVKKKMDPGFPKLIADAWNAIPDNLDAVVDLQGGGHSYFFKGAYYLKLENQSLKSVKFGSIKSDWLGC
# In short: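 APMA- or trypsin-activated recombinant MMP-2 was incubated at room temperature with serial inhibitor dilutions in Tris buffer pH 7.5 (100 mM NaCl, 10 mM CaCl2, 0.05% Brij), with DMSO from 1% stocks, and 4 μM substrate I. Cleavage was read by fluorescence at 328/415 nm; IC50 was taken from the loss of fluorescence versus inhibitor concentration.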
# Human recombinant MMP-13 = target: T5, Human recombinant MMP-13 (Homo sapiens, UniProt P45452)
# T5 construct: made in house; host or cells: baculovirus / insect cells
# In short: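 Fluorescence at 415 nm (excitation 328 nm) reports Gly-Leu cleavage of 4 μM quenched methoxycoumarin peptide substrate I. Human recombinant MMP-13, activated by trypsin or APMA, was incubated at room temperature with varied inhibitor concentrations in pH 7.5 Tris/NaCl/CaCl2 buffer; IC50 derived from reduced fluorescence.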
# [1] = substrate (I) 4 μM, room temperature, values not in parenthesis
# [2] = value outside parentheses (Ki in parenthesis)
# T1 sequence (P14780 107-707 limits assumed): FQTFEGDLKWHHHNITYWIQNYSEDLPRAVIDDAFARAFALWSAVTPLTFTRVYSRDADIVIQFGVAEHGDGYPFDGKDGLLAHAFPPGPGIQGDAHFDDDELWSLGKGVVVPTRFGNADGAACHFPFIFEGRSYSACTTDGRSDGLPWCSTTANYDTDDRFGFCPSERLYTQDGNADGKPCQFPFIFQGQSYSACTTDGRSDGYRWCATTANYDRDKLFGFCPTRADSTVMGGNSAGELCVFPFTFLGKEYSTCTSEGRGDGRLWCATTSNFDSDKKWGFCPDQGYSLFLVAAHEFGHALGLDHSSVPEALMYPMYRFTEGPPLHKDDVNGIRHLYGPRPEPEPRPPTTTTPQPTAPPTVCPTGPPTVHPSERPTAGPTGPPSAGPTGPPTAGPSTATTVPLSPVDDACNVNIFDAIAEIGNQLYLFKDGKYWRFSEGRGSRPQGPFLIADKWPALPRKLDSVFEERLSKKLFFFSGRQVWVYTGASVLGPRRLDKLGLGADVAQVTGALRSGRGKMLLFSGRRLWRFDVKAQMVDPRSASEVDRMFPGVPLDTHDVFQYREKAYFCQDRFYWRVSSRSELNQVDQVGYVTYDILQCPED
SMILES,IC50 (Human recombinant MMP-9; value outside parenthesis) [µM],IC50 (Human recombinant MMP-14; value outside parenthesis) [µM],IC50 (Human recombinant MMP-1; value outside parenthesis) [µM],IC50 (Human recombinant MMP-2; value outside parenthesis) [µM],IC50 (Human recombinant MMP-13; value outside parenthesis) [µM],IC50 (Human recombinant MMP-9; [2]) [µM],IC50 (Human recombinant MMP-14; [2]) [µM],IC50 (Human recombinant MMP-1; [2]) [µM],IC50 (Human recombinant MMP-2; [2]) [µM],IC50 (Human recombinant MMP-13; [2]) [µM],other results
CC(C)C[C@@H]1C(=O)N(CCCOc2ccc(S(=O)(=O)C3(C(=O)NO)CCOCC3)cc2)C(=O)N1c1ccccc1 [Example 105],7.69,> 10,> 10,1.37,0.0097,–,–,–,–,–,–
O=C(NO)C1(S(=O)(=O)c2ccc(OCCOCC3CC3)cc2)CCOCC1 [Example 655],–,–,–,–,–,–,–,–,–,–,IC50 (Human recombinant MMP-9; value outside parentheses): 0.0699 µM; IC50 (Human recombinant MMP-14; value outside parentheses): > 10 µM; IC50 (Human recombinant MMP-1; value outside parentheses): > 10 µM; IC50 (Human recombinant MMP-2; value outside parentheses): 0.0241 µM; IC50 (Human recombinant MMP-13; value outside parentheses): 0.0284 µM
O=C(NO)C1(S(=O)(=O)c2ccc(OCCCSc3nc4ccccc4o3)cc2)CCN(C2CC2)CC1 [Example 203],0.006,> 10,> 10,0.0042,0.001,–,–,–,–,–,–
"COc1ccc(C(=O)NCCCOc2ccc(S(=O)(=O)C3(C(=O)NO)CCN(C4CC4)CC3)cc2)cc1 [Example 18, 1-cyclopropyl-N-hydroxy-4-[[4-[3[(4-methoxybenzoyl)amino]propoxy]phenyl]sulfonyl]-4-piperidinecarboxamide, Monohydrochloride]",–,–,–,–,–,–,–,–,–,–,IC50 (Human recombinant MMP-9; [1]): 6 µM; IC50 (Human recombinant MMP-14; [1]): > 10 µM; IC50 (Human recombinant MMP-1; [1]): > 10 µM; IC50 (Human recombinant MMP-2; [1]): 0.537 µM; IC50 (Human recombinant MMP-13; [1]): 0.0018 µM
COc1ccc(/C(CCCCOc2ccc(S(=O)(=O)C3(C(=O)NO)CCOCC3)cc2)=N/O)c(OC)c1 [Example 25],–,–,–,–,–,–,–,–,–,–,IC50 (Human recombinant MMP-9; [1]): 8.5 µM; IC50 (Human recombinant MMP-14; [1]): > 10 µM; IC50 (Human recombinant MMP-1; [1]): > 10 µM; IC50 (Human recombinant MMP-2; [1]): 0.247 µM; IC50 (Human recombinant MMP-13; [1]): 0.0018 µM
O=C(NCCCOc1ccc(S(=O)(=O)C2(C(=O)NO)CCOCC2)cc1)c1cnc(Cl)c(Cl)c1 [Example 384],–,–,–,–,–,2.63,> 10,> 10,0.176,0.0008,–
O=C(NCCCOc1ccc(S(=O)(=O)C2(C(=O)NO)CCOCC2)cc1)c1cccnc1 [Example 385],–,–,–,–,–,> 10,> 10,4.34,0.253,0.0033,–
CN(C)c1ccc(C(=O)CCCOc2ccc(S(=O)(=O)C3(C(=O)NO)CCOCC3)cc2)cc1 [Example 490],–,–,–,–,–,0.928,5.63,> 10,0.0182,0.0002,–
CC(=O)c1cccc(OCCOc2ccc(S(=O)(=O)C3(C(=O)NO)CCOCC3)cc2)c1 [Example 658],–,–,–,–,–,–,–,–,–,–,IC50 (Human recombinant MMP-9; value outside parentheses): 0.891 µM; IC50 (Human recombinant MMP-14; value outside parentheses): > 10 µM; IC50 (Human recombinant MMP-1; value outside parentheses): > 10 µM; IC50 (Human recombinant MMP-2; value outside parentheses): 0.156 µM; IC50 (Human recombinant MMP-13; value outside parentheses): 0.00327 µM
COc1ccc2sc(SCCCOc3ccc(S(=O)(=O)C4(C(=O)NO)CCOCC4)cc3)nc2c1 [Example 285],0.0236,> 10,> 10,0.0167,0.0018,–,–,–,–,–,–
O=C(NO)C1(S(=O)(=O)c2ccc(OCCC3CCCCC3)cc2)CCOCC1 [Example 478],–,–,–,–,–,0.034,1.45,> 10,0.001,0.005,–
O=C(CCCCOc1ccc(S(=O)(=O)C2(C(=O)NO)CCOCC2)cc1)c1ccccc1 [Example 326],–,–,–,–,–,0.263,8.32,> 10,0.0074,0.0003,–
O=C(NO)C1(S(=O)(=O)c2ccc(OCCOCC3CCCCO3)cc2)CCOCC1 (centres unmarked) [Example 661],–,–,–,–,–,–,–,–,–,–,IC50 (Human recombinant MMP-9; value outside parentheses): 0.616 µM; IC50 (Human recombinant MMP-14; value outside parentheses): > 10 µM; IC50 (Human recombinant MMP-1; value outside parentheses): > 10 µM; IC50 (Human recombinant MMP-2; value outside parentheses): 0.0782 µM; IC50 (Human recombinant MMP-13; value outside parentheses): 0.061 µM
COc1ccc(C(=O)CCCCOc2ccc(S(=O)(=O)C3(C(=O)NO)CCOCC3)cc2)c(OC)c1 [Example 351],–,–,–,–,–,2.22,> 10,> 10,0.0341,0.001,–
COc1ccc(-c2nnn(CCCOc3ccc(S(=O)(=O)C4(C(=O)NO)CCOCC4)cc3)n2)cc1 [Example 252],1.05,> 10,5.6,0.0479,0.0002,–,–,–,–,–,–
O=C(NO)C1(S(=O)(=O)c2ccc(OCCCc3nnc(Cl)o3)cc2)CCOCC1 [Example 244],0.108,> 10,3.25,0.0188,0.0007,–,–,–,–,–,–

# Source: patent US20040024024A1, “Aromatic sulfone hydroxamates and their use as protease inhibitors” (priority 2001, published 2004)
